# Measurements published in article PMC10905675, “INX-315, a Selective CDK2 Inhibitor, Induces Cell Cycle Arrest and Senescence in Solid Tumors” (Cancer Discovery, 2023).
# Assays:
# Assay in all cases: SelectScreen ZLYTE
# Format in all cases: biochemical
# Conditions in all cases: INX-0315 at 100nM
# ADRBK1 (GRK2) = target: T1, ADRBK1 (GRK2) (Homo sapiens, UniProt P25098)
# T1 construct: purchased Thermo Fisher Scientific SelectScreen (plus Nanosyn / Reaction Biology for CDK/cyclin lines)
# Description: (§1) INX-315 was first evaluated in the SelectScreen Biochemical Kinase Profiling at Thermo Fisher Scientific (Madison, WI). The primary screen consisted of INX-315 dosed at a single concentration of 100 nmol/L in 1% DMSO across each platform within the SelectScreen array of assays, LanthaScreen Eu Kinase Binding Assay; AdaptaScreen; and Z'LyteScreen using preestablished conditions at Thermo Fisher Scientific as shown in Supplementary Table S2. […] The follow-up screen consisted of 10-point dose–response curves for INX-315 from 1 µmol/L to 0.0495 nmol/L.
# ALK = target: T2, ALK (Homo sapiens, UniProt Q9UM73)
# T2 construct: purchased Thermo Fisher Scientific SelectScreen (plus Nanosyn / Reaction Biology for CDK/cyclin lines)
# Description: as §1
# AMPK (A2/B1/G2) = target: T3, AMPK (A2/B1/G2) (Homo sapiens, UniProt P54646)
# T3 construct: purchased Thermo Fisher Scientific SelectScreen (plus Nanosyn / Reaction Biology for CDK/cyclin lines)
# Description: as §1
# CAMK1D (CaMKI delta) = target: T4, CAMK1D (CaMKI delta) (Homo sapiens, UniProt Q8IU85)
# T4 construct: purchased Thermo Fisher Scientific SelectScreen (plus Nanosyn / Reaction Biology for CDK/cyclin lines)
# Description: as §1
# CLK1 = target: T5, CLK1 (Homo sapiens, UniProt P49759)
# T5 construct: purchased Thermo Fisher Scientific SelectScreen (plus Nanosyn / Reaction Biology for CDK/cyclin lines)
# Description: as §1
# CSNK1A1L = target: T6, CSNK1A1L (Homo sapiens, UniProt Q8N752)
# T6 construct: purchased Thermo Fisher Scientific SelectScreen (plus Nanosyn / Reaction Biology for CDK/cyclin lines)
# Description: as §1
# CSNK1D (CK1 delta) = target: T7, CSNK1D (CK1 delta) (Homo sapiens, UniProt P48730)
# T7 construct: purchased Thermo Fisher Scientific SelectScreen (plus Nanosyn / Reaction Biology for CDK/cyclin lines)
# Description: as §1
# CSNK2A2 (CK2 alpha 2) = target: T8, CSNK2A2 (CK2 alpha 2) (Homo sapiens, UniProt P19784)
# T8 construct: purchased Thermo Fisher Scientific SelectScreen (plus Nanosyn / Reaction Biology for CDK/cyclin lines)
# Description: as §1
# EGFR (ErbB1) = target: T9, EGFR (ErbB1) (Homo sapiens, UniProt P00533)
# T9 construct: purchased Thermo Fisher Scientific SelectScreen (plus Nanosyn / Reaction Biology for CDK/cyclin lines)
# Description: as §1
# EGFR (ErbB1) T790M = target: T10, EGFR (ErbB1) T790M (Homo sapiens, UniProt P00533, T790M)
# T10 construct: purchased Thermo Fisher Scientific SelectScreen (plus Nanosyn / Reaction Biology for CDK/cyclin lines)
# Description: as §1
# EPHB4 = target: T11, EPHB4 (Homo sapiens, UniProt P54760)
# T11 construct: purchased Thermo Fisher Scientific SelectScreen (plus Nanosyn / Reaction Biology for CDK/cyclin lines)
# Description: as §1
# HIPK4 = target: T12, HIPK4 (Homo sapiens, UniProt Q8NE63)
# T12 construct: purchased Thermo Fisher Scientific SelectScreen (plus Nanosyn / Reaction Biology for CDK/cyclin lines)
# Description: as §1
# IRAK4 = target: T13, IRAK4 (Homo sapiens, UniProt Q9NWZ3)
# T13 construct: purchased Thermo Fisher Scientific SelectScreen (plus Nanosyn / Reaction Biology for CDK/cyclin lines)
# Description: as §1
# JAK2 JH1 JH2 = target: T14, JAK2 JH1 JH2 (Homo sapiens, UniProt O60674)
# T14 construct: JAK2 JH1 JH2; purchased Thermo Fisher Scientific SelectScreen (plus Nanosyn / Reaction Biology for CDK/cyclin lines)
# Description: as §1
# JAK3 = target: T15, JAK3 (Homo sapiens, UniProt P52333)
# T15 construct: purchased Thermo Fisher Scientific SelectScreen (plus Nanosyn / Reaction Biology for CDK/cyclin lines)
# Description: as §1
# KDR (VEGFR2) = target: T16, KDR (VEGFR2) (Homo sapiens, UniProt P35968)
# T16 construct: purchased Thermo Fisher Scientific SelectScreen (plus Nanosyn / Reaction Biology for CDK/cyclin lines)
# Description: as §1
# LYN B = target: T17, LYN B (Homo sapiens, UniProt P07948)
# T17 construct: purchased Thermo Fisher Scientific SelectScreen (plus Nanosyn / Reaction Biology for CDK/cyclin lines)
# Description: as §1
# MAPK12 (p38 gamma) = target: T18, MAPK12 (p38 gamma) (Homo sapiens, UniProt P53778)
# T18 construct: purchased Thermo Fisher Scientific SelectScreen (plus Nanosyn / Reaction Biology for CDK/cyclin lines)
# Description: as §1
# MARK3 = target: T19, MARK3 (Homo sapiens, UniProt P27448)
# T19 construct: purchased Thermo Fisher Scientific SelectScreen (plus Nanosyn / Reaction Biology for CDK/cyclin lines)
# Description: as §1
# MET M1250T = target: T20, MET M1250T (Homo sapiens, UniProt P08581, M1250T)
# T20 construct: purchased Thermo Fisher Scientific SelectScreen (plus Nanosyn / Reaction Biology for CDK/cyclin lines)
# Description: as §1
# MST4 = target: T21, MST4 (Homo sapiens, UniProt Q9P289)
# T21 construct: purchased Thermo Fisher Scientific SelectScreen (plus Nanosyn / Reaction Biology for CDK/cyclin lines)
# Description: as §1
# NEK2 = target: T22, NEK2 (Homo sapiens, UniProt P51955)
# T22 construct: purchased Thermo Fisher Scientific SelectScreen (plus Nanosyn / Reaction Biology for CDK/cyclin lines)
# Description: as §1
# NIM1K = target: T23, NIM1K (Homo sapiens, UniProt Q8IY84)
# T23 construct: purchased Thermo Fisher Scientific SelectScreen (plus Nanosyn / Reaction Biology for CDK/cyclin lines)
# Description: as §1
# PAK1 = target: T24, PAK1 (Homo sapiens, UniProt Q13153)
# T24 construct: purchased Thermo Fisher Scientific SelectScreen (plus Nanosyn / Reaction Biology for CDK/cyclin lines)
# Description: as §1
# PAK6 = target: T25, PAK6 (Homo sapiens, UniProt Q9NQU5)
# T25 construct: purchased Thermo Fisher Scientific SelectScreen (plus Nanosyn / Reaction Biology for CDK/cyclin lines)
# Description: as §1
# PAK7 (KIAA1264) = target: T26, PAK7 (KIAA1264) (Homo sapiens, UniProt Q9P286)
# T26 construct: purchased Thermo Fisher Scientific SelectScreen (plus Nanosyn / Reaction Biology for CDK/cyclin lines)
# Description: as §1
# PIM3 = target: T27, PIM3 (Homo sapiens, UniProt Q86V86)
# T27 construct: purchased Thermo Fisher Scientific SelectScreen (plus Nanosyn / Reaction Biology for CDK/cyclin lines)
# Description: as §1
# PRKACA (PKA) = target: T28, PRKACA (PKA) (Homo sapiens, UniProt P17612)
# T28 construct: purchased Thermo Fisher Scientific SelectScreen (plus Nanosyn / Reaction Biology for CDK/cyclin lines)
# Description: as §1
# PRKCB2 (PKC beta II) = target: T29, PRKCB2 (PKC beta II) (Homo sapiens, UniProt P05771)
# T29 construct: purchased Thermo Fisher Scientific SelectScreen (plus Nanosyn / Reaction Biology for CDK/cyclin lines)
# Description: as §1
# PRKD1 (PKC mu) = target: T30, PRKD1 (PKC mu) (Homo sapiens, UniProt Q15139)
# T30 construct: purchased Thermo Fisher Scientific SelectScreen (plus Nanosyn / Reaction Biology for CDK/cyclin lines)
# Description: as §1
# RET = target: T31, RET (Homo sapiens, UniProt P07949)
# T31 construct: purchased Thermo Fisher Scientific SelectScreen (plus Nanosyn / Reaction Biology for CDK/cyclin lines)
# Description: as §1
# RET S891A = target: T32, RET S891A (Homo sapiens, UniProt P07949, S891A)
# T32 construct: purchased Thermo Fisher Scientific SelectScreen (plus Nanosyn / Reaction Biology for CDK/cyclin lines)
# Description: as §1
# RPS6KA2 (RSK3) = target: T33, RPS6KA2 (RSK3) (Homo sapiens, UniProt Q15349)
# T33 construct: purchased Thermo Fisher Scientific SelectScreen (plus Nanosyn / Reaction Biology for CDK/cyclin lines)
# Description: as §1
# SGKL (SGK3) = target: T34, SGKL (SGK3) (Homo sapiens, UniProt Q96BR1)
# T34 construct: purchased Thermo Fisher Scientific SelectScreen (plus Nanosyn / Reaction Biology for CDK/cyclin lines)
# Description: as §1
# SRMS (Srm) = target: T35, SRMS (Srm) (Homo sapiens, UniProt Q9H3Y6)
# T35 construct: purchased Thermo Fisher Scientific SelectScreen (plus Nanosyn / Reaction Biology for CDK/cyclin lines)
# Description: as §1
# SRPK2 = target: T36, SRPK2 (Homo sapiens, UniProt P78362)
# T36 construct: purchased Thermo Fisher Scientific SelectScreen (plus Nanosyn / Reaction Biology for CDK/cyclin lines)
# Description: as §1
# STK4 (MST1) = target: T37, STK4 (MST1) (Homo sapiens, UniProt Q13043)
# T37 construct: purchased Thermo Fisher Scientific SelectScreen (plus Nanosyn / Reaction Biology for CDK/cyclin lines)
# Description: as §1
# T15 sequence (P52333 whole entry): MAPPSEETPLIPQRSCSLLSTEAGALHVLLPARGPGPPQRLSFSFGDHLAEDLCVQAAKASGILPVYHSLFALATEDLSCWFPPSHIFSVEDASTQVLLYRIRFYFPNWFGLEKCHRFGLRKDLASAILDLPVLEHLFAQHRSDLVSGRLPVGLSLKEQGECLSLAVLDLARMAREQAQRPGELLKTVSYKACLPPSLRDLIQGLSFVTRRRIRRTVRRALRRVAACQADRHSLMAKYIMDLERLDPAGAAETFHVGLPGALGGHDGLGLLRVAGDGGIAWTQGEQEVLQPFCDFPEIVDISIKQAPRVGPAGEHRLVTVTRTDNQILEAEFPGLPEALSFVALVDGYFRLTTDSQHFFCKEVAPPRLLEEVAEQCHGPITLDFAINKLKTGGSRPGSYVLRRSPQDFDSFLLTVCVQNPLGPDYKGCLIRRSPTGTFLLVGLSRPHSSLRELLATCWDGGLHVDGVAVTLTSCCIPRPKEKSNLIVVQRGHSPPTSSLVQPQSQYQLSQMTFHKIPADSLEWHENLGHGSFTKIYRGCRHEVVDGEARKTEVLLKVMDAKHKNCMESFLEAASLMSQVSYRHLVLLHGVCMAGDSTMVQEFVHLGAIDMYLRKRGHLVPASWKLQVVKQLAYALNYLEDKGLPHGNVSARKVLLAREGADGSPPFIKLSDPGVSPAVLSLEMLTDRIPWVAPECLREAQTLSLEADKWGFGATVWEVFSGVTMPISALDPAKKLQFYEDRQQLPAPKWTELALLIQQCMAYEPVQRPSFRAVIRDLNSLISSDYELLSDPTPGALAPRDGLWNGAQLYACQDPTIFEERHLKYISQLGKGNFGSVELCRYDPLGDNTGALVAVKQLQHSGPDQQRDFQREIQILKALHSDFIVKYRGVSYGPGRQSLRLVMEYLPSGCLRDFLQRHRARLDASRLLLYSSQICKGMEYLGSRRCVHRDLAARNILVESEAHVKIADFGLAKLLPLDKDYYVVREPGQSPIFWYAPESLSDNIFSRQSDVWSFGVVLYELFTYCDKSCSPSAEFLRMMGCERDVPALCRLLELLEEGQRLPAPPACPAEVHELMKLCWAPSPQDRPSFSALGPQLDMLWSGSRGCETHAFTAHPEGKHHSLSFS
# T25 sequence (Q9NQU5 whole entry): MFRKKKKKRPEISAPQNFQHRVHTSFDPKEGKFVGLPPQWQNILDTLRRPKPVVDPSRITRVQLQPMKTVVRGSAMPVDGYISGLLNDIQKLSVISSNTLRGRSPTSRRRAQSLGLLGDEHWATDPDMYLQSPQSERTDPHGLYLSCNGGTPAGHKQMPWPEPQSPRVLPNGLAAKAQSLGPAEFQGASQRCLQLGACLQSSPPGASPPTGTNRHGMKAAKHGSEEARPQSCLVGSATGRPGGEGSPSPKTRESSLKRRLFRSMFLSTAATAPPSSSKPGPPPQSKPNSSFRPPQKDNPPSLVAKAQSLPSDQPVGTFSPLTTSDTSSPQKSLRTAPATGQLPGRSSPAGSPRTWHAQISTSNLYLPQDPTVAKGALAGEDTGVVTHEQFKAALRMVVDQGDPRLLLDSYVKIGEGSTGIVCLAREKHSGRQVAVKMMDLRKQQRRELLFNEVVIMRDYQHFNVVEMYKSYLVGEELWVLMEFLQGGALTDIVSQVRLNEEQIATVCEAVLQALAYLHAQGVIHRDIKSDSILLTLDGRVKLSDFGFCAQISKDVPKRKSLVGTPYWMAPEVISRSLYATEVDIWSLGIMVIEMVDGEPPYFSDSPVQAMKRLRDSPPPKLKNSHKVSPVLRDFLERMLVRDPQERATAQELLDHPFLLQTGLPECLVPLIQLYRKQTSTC
# T6 sequence (Q8N752 whole entry): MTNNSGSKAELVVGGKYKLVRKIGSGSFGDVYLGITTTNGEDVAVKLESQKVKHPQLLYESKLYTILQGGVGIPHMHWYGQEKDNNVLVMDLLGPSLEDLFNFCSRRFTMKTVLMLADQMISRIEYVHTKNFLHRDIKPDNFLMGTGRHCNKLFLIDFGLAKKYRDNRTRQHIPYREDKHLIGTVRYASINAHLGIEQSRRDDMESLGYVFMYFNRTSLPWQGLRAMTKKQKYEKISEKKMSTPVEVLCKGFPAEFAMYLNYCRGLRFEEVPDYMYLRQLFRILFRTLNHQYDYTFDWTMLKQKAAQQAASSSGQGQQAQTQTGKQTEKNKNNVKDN
# T7 sequence (P48730 whole entry): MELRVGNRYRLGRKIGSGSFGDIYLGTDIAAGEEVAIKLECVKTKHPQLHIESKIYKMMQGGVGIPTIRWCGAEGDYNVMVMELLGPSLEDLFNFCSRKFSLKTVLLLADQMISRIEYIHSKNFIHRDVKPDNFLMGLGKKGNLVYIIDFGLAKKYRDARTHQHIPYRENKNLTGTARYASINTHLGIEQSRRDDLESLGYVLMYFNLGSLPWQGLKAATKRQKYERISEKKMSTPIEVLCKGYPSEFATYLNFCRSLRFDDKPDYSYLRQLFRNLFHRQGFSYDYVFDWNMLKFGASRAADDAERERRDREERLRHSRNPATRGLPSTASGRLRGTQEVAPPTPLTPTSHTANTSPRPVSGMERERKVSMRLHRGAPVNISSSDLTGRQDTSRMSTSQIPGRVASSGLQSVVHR
# T35 sequence (Q9H3Y6 whole entry): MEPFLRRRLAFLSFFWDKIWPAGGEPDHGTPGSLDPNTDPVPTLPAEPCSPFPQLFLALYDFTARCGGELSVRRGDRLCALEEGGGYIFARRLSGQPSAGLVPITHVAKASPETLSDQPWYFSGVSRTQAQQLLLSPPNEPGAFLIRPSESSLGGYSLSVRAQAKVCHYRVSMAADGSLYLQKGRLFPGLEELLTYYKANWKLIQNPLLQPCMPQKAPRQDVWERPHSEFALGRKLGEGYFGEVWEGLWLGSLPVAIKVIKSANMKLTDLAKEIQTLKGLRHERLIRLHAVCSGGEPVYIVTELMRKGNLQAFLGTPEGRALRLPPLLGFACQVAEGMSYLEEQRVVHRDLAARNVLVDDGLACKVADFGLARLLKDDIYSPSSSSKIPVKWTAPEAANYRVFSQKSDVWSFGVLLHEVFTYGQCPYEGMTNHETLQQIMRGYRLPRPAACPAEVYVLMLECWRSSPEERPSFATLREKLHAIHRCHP
# T22 sequence (P51955 whole entry): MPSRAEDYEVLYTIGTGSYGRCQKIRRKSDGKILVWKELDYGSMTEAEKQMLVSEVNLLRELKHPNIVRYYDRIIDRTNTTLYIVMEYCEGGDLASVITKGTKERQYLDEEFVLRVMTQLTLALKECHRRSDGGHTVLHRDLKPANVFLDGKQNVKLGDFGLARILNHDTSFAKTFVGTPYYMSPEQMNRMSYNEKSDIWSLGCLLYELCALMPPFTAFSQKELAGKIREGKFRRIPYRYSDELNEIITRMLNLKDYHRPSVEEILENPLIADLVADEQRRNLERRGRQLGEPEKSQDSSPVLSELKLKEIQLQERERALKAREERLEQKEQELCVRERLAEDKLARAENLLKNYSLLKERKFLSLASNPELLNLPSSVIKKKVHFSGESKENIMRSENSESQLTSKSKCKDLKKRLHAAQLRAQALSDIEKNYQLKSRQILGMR
# T26 sequence (Q9P286 whole entry): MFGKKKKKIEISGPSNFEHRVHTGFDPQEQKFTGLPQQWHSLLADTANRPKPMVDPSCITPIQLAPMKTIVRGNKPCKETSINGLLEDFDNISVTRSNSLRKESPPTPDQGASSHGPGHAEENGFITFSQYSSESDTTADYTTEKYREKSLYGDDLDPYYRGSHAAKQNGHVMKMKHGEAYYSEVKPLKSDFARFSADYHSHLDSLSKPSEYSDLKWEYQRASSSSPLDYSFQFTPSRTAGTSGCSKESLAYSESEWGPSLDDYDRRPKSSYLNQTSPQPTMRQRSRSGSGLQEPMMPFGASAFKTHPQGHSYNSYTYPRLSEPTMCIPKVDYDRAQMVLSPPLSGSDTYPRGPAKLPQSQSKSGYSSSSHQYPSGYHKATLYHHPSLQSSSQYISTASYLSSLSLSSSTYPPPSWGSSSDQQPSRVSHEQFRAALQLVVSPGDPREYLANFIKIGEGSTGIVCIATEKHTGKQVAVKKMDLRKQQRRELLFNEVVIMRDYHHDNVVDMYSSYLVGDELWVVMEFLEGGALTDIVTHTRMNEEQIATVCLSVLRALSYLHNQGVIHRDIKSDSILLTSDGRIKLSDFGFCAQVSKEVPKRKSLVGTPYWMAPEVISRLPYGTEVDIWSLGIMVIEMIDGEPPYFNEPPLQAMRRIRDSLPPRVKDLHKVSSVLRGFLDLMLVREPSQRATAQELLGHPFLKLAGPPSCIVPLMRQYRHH
# T19 sequence (P27448 whole entry): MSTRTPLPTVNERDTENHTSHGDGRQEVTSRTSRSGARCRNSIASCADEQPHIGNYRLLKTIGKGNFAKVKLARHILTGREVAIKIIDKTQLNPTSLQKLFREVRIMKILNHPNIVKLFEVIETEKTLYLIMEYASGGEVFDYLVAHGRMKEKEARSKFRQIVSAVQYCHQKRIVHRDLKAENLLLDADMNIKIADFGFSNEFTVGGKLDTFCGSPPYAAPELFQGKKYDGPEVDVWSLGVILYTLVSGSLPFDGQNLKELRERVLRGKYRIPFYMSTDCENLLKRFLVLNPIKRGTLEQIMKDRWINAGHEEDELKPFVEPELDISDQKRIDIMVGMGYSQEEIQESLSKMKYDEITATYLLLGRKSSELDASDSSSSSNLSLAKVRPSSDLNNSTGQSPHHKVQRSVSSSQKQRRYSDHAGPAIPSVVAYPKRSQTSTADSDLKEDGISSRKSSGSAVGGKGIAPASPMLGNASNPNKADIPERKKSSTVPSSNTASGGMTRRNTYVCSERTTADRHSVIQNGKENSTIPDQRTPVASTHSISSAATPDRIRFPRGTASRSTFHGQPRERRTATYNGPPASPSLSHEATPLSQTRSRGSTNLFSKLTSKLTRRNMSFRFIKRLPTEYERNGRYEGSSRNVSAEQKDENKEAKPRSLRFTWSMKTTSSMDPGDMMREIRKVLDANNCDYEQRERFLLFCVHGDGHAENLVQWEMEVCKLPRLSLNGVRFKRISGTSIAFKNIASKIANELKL
structure (smiles),measurement,setting,value
NS(=O)(=O)c1ccc(Nc2ncc3cc4n(c3n2)C2(CCCCC2)C(=O)NN4)cc1 [INX-315],inhibition at 0.1 µM,ADRBK1 (GRK2),0%
same,inhibition at 0.1 µM,ALK,16%
same,inhibition at 0.1 µM,AMPK (A2/B1/G2),20%
same,inhibition at 0.1 µM,CAMK1D (CaMKI delta),1%
same,inhibition at 0.1 µM,CLK1,5%
same,inhibition at 0.1 µM,CSNK1A1L,4%
same,inhibition at 0.1 µM,CSNK1D (CK1 delta),0%
same,inhibition at 0.1 µM,CSNK2A2 (CK2 alpha 2),4%
same,inhibition at 0.1 µM,EGFR (ErbB1),4%
same,inhibition at 0.1 µM,EGFR (ErbB1) T790M,5%
same,inhibition at 0.1 µM,EPHB4,6%
same,inhibition at 0.1 µM,HIPK4,7%
same,inhibition at 0.1 µM,IRAK4,10%
same,inhibition at 0.1 µM,JAK2 JH1 JH2,44%
same,inhibition at 0.1 µM,JAK3,24%
same,inhibition at 0.1 µM,KDR (VEGFR2),42%
same,inhibition at 0.1 µM,LYN B,17%
same,inhibition at 0.1 µM,MAPK12 (p38 gamma),9%
same,inhibition at 0.1 µM,MARK3,10%
same,inhibition at 0.1 µM,MET M1250T,3%
same,inhibition at 0.1 µM,MST4,-4%
same,inhibition at 0.1 µM,NEK2,3%
same,inhibition at 0.1 µM,NIM1K,5%
same,inhibition at 0.1 µM,PAK1,6%
same,inhibition at 0.1 µM,PAK6,19%
same,inhibition at 0.1 µM,PAK7 (KIAA1264),1%
same,inhibition at 0.1 µM,PIM3,8%
same,inhibition at 0.1 µM,PRKACA (PKA),4%
same,inhibition at 0.1 µM,PRKCB2 (PKC beta II),13%
same,inhibition at 0.1 µM,PRKD1 (PKC mu),9%
same,inhibition at 0.1 µM,RET,58%
same,inhibition at 0.1 µM,RET S891A,46%
same,inhibition at 0.1 µM,RPS6KA2 (RSK3),24%
same,inhibition at 0.1 µM,SGKL (SGK3),6%
same,inhibition at 0.1 µM,SRMS (Srm),17%
same,inhibition at 0.1 µM,SRPK2,2%
same,inhibition at 0.1 µM,STK4 (MST1),26%
